From ChEMBL document CHEMBL4513135, “CO-ADD screening of IQOG CSIS (Spain) compounds”
In brackets after ≈: the same amount, converted by molar mass.

What was measured:
Acinetobacter baumannii = test: microbe, parasite or virus in culture; settings: ATCC 19606, 18 h, ASSAY_TEST Inhibition of Bacterial Growth, detection method Absorption (OD600), MEDIA CAMHB, plate type 384well, NBS, CORNING #3640
Klebsiella pneumoniae = test: microbe, parasite or virus in culture; settings: ATCC 700603, 18 h, ASSAY_TEST Inhibition of Bacterial Growth, detection method Absorption (OD600), MEDIA CAMHB, plate type 384well, NBS, CORNING #3640
Candida albicans = test: microbe, parasite or virus in culture; settings: ATCC 90028, ASSAY_TEST Inhibition of Fungal Growth, detection method Absorption (OD530), plate type 384well, NBS, CORNING #3640
HEK293 = test: cells; format: functional; settings: Homo sapiens, ATCC CRL1573, HEK293; ASSAY_TEST Inhibition of Cell Viability; detection method Resazurin; Fluorescence (ex560/em590); MEDIA DMEM with 10% FBS; plate type 384well; TC; CORNING #3712; time 18 hr
Staphylococcus aureus = test: microbe, parasite or virus in culture; settings: ATCC 43300, 18 h, ASSAY_TEST Inhibition of Bacterial Growth, detection method Absorption (OD600), MEDIA CAMHB, plate type 384well, NBS, CORNING #3640
Pseudomonas aeruginosa = test: microbe, parasite or virus in culture; settings: ATCC 27853, 18 h, ASSAY_TEST Inhibition of Bacterial Growth, detection method Absorption (OD600), MEDIA CAMHB, plate type 384well, NBS, CORNING #3640
Escherichia coli = test: microbe, parasite or virus in culture; settings: ATCC 25922, 18 h, ASSAY_TEST Inhibition of Bacterial Growth, detection method Absorption (OD600), MEDIA CAMHB, plate type 384well, NBS, CORNING #3640

Row | Compound | MIC (Acinetobacter baumannii) | MIC (Klebsiella pneumoniae) | MIC (Candida albicans) | CC50 (HEK293) | MIC (Staphylococcus aureus) | MIC (Cryptococcus neoformans) | MIC (Pseudomonas aeruginosa) | MIC (Escherichia coli)
1 | C=C=CCN(C)Cc1cc2cc(OCc3ccccc3)ccc2n1C.O=C(O)C(=O)O | > 32 µg/mL | > 32 µg/mL | > 32 µg/mL | 1.61 µg/mL | > 32 µg/mL | > 32 µg/mL | > 32 µg/mL | > 32 µg/mL
2 | C#CCN(C)Cc1cc2cc(OCc3ccccc3)ccc2[nH]1.O=C(O)C(=O)O | > 32 µg/mL | > 32 µg/mL | 32 µg/mL | > 32 µg/mL | > 32 µg/mL | > 32 µg/mL | > 32 µg/mL | > 32 µg/mL
3 | N#CC1=C(N)Oc2ccc3ccccc3c2C1c1ccc([N+](=O)[O-])cc1 (centres undefined) | > 32 µg/mL | > 32 µg/mL | > 32 µg/mL | 1.88 µg/mL (≈ 5.48 µM) | > 32 µg/mL | > 32 µg/mL | > 32 µg/mL | > 32 µg/mL
4 | CCOC(=O)C1=C(C)Nc2nc3c(c(N)c2C1c1ccccc1OC)CCCC3 (centres undefined) | > 32 µg/mL | > 32 µg/mL | > 32 µg/mL |  | 32 µg/mL (≈ 81.3 µM) | > 32 µg/mL | > 32 µg/mL | > 32 µg/mL
5 | COc1ccc2[nH]c3nc4c(c(N)c3c2c1)CCCC4 | > 32 µg/mL | > 32 µg/mL | > 32 µg/mL | 15 µg/mL (≈ 56.1 µM) | > 32 µg/mL | 32 µg/mL (≈ 120 µM) | 32 µg/mL (≈ 120 µM) | > 32 µg/mL
6 | C#CCN(C)Cc1cc2cc(OCCCCC3CCN(Cc4ccccc4)CC3)ccc2n1C.Cl | > 32 µg/mL | > 32 µg/mL | > 32 µg/mL | > 32 µg/mL | > 32 µg/mL | > 32 µg/mL | > 32 µg/mL | > 32 µg/mL
7 | COc1nc(Cl)c(C#N)cc1C#N | > 32 µg/mL | > 32 µg/mL | 16 µg/mL (≈ 82.6 µM) | 0.56 µg/mL (≈ 2.89 µM) | > 32 µg/mL | > 32 µg/mL | > 32 µg/mL | > 32 µg/mL
8 | CCOC(=O)C1=C(C)Nc2nc3c(c(N)c2C1c1ccccc1OC)CCCC3.Cl (centres undefined) | > 32 µg/mL | > 32 µg/mL | > 32 µg/mL |  | 32 µg/mL |  | > 32 µg/mL | > 32 µg/mL
9 | C#CCN(C)c1nc(NCCCCC2CCN(Cc3ccccc3)CC2)c(C#N)c(-c2ccccc2)c1C#N | > 32 µg/mL | > 32 µg/mL | 32 µg/mL (≈ 61.9 µM) | 3.73 µg/mL (≈ 7.22 µM) | > 32 µg/mL | 8 µg/mL (≈ 15.5 µM) | > 32 µg/mL | > 32 µg/mL
10 | CC1CC(=O)Nc2c1c(Br)nc1nc3c(c(N)c21)CCCC3 (centres undefined) | > 32 µg/mL | > 32 µg/mL | > 32 µg/mL | 4.01 µg/mL (≈ 11.1 µM) | > 32 µg/mL | > 32 µg/mL | > 32 µg/mL | > 32 µg/mL
11 | C#CCNc1nc(NCCCC2CCN(Cc3ccccc3)CC2)c(C#N)c(-c2ccccc2)c1C#N | > 32 µg/mL | > 32 µg/mL | > 32 µg/mL | 16 µg/mL (≈ 32.7 µM) | > 32 µg/mL | 32 µg/mL (≈ 65.5 µM) | > 32 µg/mL | > 32 µg/mL
12 | C#CCN(C)Cc1cc2cc(OCCCC3CCN(Cc4ccccc4)CC3)ccc2[nH]1.O=C(O)C(=O)O | > 32 µg/mL | > 32 µg/mL | > 32 µg/mL | 13.4 µg/mL | > 32 µg/mL | > 32 µg/mL | > 32 µg/mL | > 32 µg/mL
13 | C#CCNc1nc(NCCC2CCN(Cc3ccccc3)CC2)c(C#N)c(-c2ccccc2)c1C#N | > 32 µg/mL | > 32 µg/mL | > 32 µg/mL | 11.3 µg/mL (≈ 23.8 µM) | > 32 µg/mL | > 32 µg/mL | > 32 µg/mL | > 32 µg/mL
14 | N#C/C(=C\c1ccc([N+](=O)[O-])cc1)C(=O)c1ccccc1 | > 32 µg/mL | > 32 µg/mL | > 32 µg/mL | > 32 µg/mL | > 32 µg/mL | 32 µg/mL (≈ 115 µM) | > 32 µg/mL | > 32 µg/mL
15 | C#CCN(C)c1nc(N)c(C#N)c(-c2ccccc2)c1C#N | > 32 µg/mL | > 32 µg/mL | > 32 µg/mL | > 32 µg/mL | > 32 µg/mL | > 32 µg/mL | > 32 µg/mL | > 32 µg/mL
16 | Nc1n[nH]c2nc3[nH]nc(N)c3c(-c3ccccc3)c12 | > 32 µg/mL | > 32 µg/mL | > 32 µg/mL | 8.23 µg/mL (≈ 31 µM) | > 32 µg/mL | > 32 µg/mL | > 32 µg/mL | > 32 µg/mL
17 | N#CC1=C(N)Oc2c(ccc3ccccc23)C1c1ccccc1[N+](=O)[O-] (centres undefined) | > 32 µg/mL | > 32 µg/mL | > 32 µg/mL | > 32 µg/mL | > 32 µg/mL | > 32 µg/mL | > 32 µg/mL | > 32 µg/mL
18 | C#CCN(C)c1nc(NCCCCC2CCN(Cc3ccccc3)CC2)c(C#N)c(-c2ccccc2)c1C#N.Cl | > 32 µg/mL | > 32 µg/mL | > 32 µg/mL | 4.12 µg/mL | > 32 µg/mL | 16 µg/mL | > 32 µg/mL | > 32 µg/mL
19 | CN(Cc1cn(-c2ccccc2)nn1)Cc1cc2cc(OCCCC3CCN(Cc4ccccc4)CC3)ccc2n1C.Cl | > 32 µg/mL | > 32 µg/mL | > 32 µg/mL | 3.55 µg/mL | > 32 µg/mL | > 32 µg/mL | > 32 µg/mL | > 32 µg/mL
20 | C#CCNc1nc(Cl)c(C#N)cc1C#N | > 32 µg/mL | > 32 µg/mL | 32 µg/mL (≈ 148 µM) | 22.4 µg/mL (≈ 103 µM) | > 32 µg/mL | > 32 µg/mL | > 32 µg/mL | > 32 µg/mL
21 | C#CCNc1ccc(Cl)cn1 | > 32 µg/mL | > 32 µg/mL | > 32 µg/mL | > 32 µg/mL | > 32 µg/mL | > 32 µg/mL | > 32 µg/mL | > 32 µg/mL
22 | C#CCNc1nc(NCCCCC2CCN(Cc3ccccc3)CC2)c(C#N)c(-c2ccccc2)c1C#N | > 32 µg/mL | > 32 µg/mL | > 32 µg/mL | 3.46 µg/mL (≈ 6.88 µM) | > 32 µg/mL | > 32 µg/mL | > 32 µg/mL | > 32 µg/mL
23 | C#CCN(C)Cc1cc2cc(OCCCC3CCNCC3)ccc2n1C.C#CCN(C)Cc1cc2cc(OCCCC3CCNCC3)ccc2n1C.Cl.Cl.Cl.Cl.O | > 32 µg/mL | > 32 µg/mL | > 32 µg/mL | 17.2 µg/mL | > 32 µg/mL | > 32 µg/mL | > 32 µg/mL | > 32 µg/mL
24 | N#CC1(Br)C(=N)Oc2ccc3ccccc3c2C1c1ccccc1[N+](=O)[O-] (centres undefined) | > 32 µg/mL | > 32 µg/mL | > 32 µg/mL | 5.83 µg/mL (≈ 13.8 µM) | > 32 µg/mL | > 32 µg/mL | > 32 µg/mL | > 32 µg/mL
